From patent US10065990B2, “Cyclic peptide compound, and preparation method, pharmaceutical composition and use thereof” (HANGZHOU GUANYU BIO-MEDICAL CO., LTD, priority 2013, dated 2018) come the findings set out here.

Molecules are shown by their SMILES. Where two headings read alike, the source gives them in different places.

One assay concerns the target T1, HDAC7 (Homo sapiens, UniProt Q8WUI4).
T1 sequence (Q8WUI4 1-952): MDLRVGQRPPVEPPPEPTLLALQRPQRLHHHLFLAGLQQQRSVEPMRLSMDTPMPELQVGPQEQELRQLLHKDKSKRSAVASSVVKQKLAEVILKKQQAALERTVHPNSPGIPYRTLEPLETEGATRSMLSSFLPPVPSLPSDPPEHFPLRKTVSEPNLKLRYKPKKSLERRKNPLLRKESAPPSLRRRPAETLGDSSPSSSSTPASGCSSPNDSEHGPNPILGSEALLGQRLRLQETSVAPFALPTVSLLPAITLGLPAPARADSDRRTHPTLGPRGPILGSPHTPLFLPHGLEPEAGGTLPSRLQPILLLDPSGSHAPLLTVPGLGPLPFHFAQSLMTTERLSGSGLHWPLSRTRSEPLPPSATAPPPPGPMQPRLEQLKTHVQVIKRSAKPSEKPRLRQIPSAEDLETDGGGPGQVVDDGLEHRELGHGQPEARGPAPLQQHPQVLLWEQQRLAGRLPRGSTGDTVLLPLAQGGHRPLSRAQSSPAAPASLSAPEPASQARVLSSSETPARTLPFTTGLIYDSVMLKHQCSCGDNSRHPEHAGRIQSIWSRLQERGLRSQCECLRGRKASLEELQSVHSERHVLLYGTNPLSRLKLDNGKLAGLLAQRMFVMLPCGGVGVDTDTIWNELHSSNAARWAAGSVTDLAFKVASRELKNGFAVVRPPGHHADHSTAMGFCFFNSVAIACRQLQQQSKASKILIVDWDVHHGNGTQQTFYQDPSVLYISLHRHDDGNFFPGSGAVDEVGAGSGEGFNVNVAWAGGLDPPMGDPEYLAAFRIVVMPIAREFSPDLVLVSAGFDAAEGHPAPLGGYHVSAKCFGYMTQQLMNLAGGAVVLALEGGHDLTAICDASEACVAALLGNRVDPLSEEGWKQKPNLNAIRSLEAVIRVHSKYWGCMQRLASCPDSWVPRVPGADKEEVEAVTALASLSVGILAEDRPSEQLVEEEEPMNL
Briefly: HDAC biochemical activity measurement (fluorescent substrate deacetylation).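 Note: fluorogenic deacetylation assay using acetyl-lysine substrate at 20 µM, enzyme and compound incubated 30 min at 37 °C, then developer added, fluorescence read at 360/460 nm.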 Particulars: HDAC7; 37° C. 30 minutes.

Assay [1] relates to KBM5-T315I (human chronic myelogenous leukemia). As to the kind of experiment: MTT cancer cell growth inhibition. The format is cell-based. Particulars: MTT, 72 hours incubation, KBM5-T315I cells, read-out: GI50 KBM5-T315I. From the text:
(§1) MTT assay principle is yellow MTT can penetrate membrane into the cell, succinic dehydrogenase of the mitochondria in living cells can make exogenous MTT reduction of insoluble in water of blue-violet acicular formazan for crystallization and deposition in the cell, crystallization can be dissolved dimethyl sulfoxide (DMSO) solution, detected its absorbance at 490 nm/570 nm wavelength by enzyme-linked immunosorbent assay, which can reflect the number of cells.
(§2) Using DMEM+10% FBS culture medium or using 1640+10% FBS culture, respectively.
(§3) a) Cells were seeded in 96-well plates with the inoculation of 1500/well, 190 μl/hole, 37° C., 5% of CO2 incubator overnight;
(§4) b) The next day each well was added 10 μl of different drugs. The final concentration of drug was 10^−5˜10^−10M, three parallel holes; 37° C., 5% CO2 culture incubator for 72 hours incubation;
(§5) c) Per well was added 20 μl 5 mg/ml of MTT, 37° C., 5% CO2 culture incubator for 4 hours incubation;
(§6) d) The supernatant was discarded. Each well was added 100 μl of DMSO and oscillation;
(§7) e) 570 nm readings. Calculate cell viability. GI50 calculation based on the results.

Assay [2] deals with N-87 (human gastric cancer cells). As to the kind of experiment: MTT cancer cell growth inhibition. It counts as cell-based. Particulars: MTT, 72 hours incubation, N-87 cells, read-out: GI50 N-87.
Excerpt: as §1, §2, §3, §4, §5, §6, §7

The subject of assay [3] is Hela (human cervical cancer cells). Briefly: MTT cancer cell growth inhibition. The format is cell-based. The note with it: MTT, 72 hours incubation, read-out: GI50 Hela.
Excerpt: as §1, §2, §3, §4, §5, §6, §7

For assay [4], the system named is BGC-823 (human gastric cancer cells). As to the kind of experiment: MTT cancer cell growth inhibition. Particulars: MTT, 72 hours incubation, read-out: GI50 BG. It counts as cell-based.
Excerpt: as §1, §2, §3, §4, §5, §6, §7

Assay [5] relates to K562 (human leukemia cells). As to the kind of experiment: MTT cancer cell growth inhibition. It counts as cell-based. Particulars: MTT, 72 hours incubation, K562 cells, read-out: GI50 K562.
Excerpt: as §1, §2, §3, §4, §5, §6, §7

For assay [6], the system named is H1975 (non-small cell lung adenocarcinoma). As to the kind of experiment: MTT cancer cell growth inhibition. The note with it: MTT, 72 hours incubation, H1975 cells, read-out: GI50 H1975. It counts as cell-based.
Excerpt: as §1, §2, §3, §4, §5, §6, §7

Assay [7] has as its system PANC-1 (Pac-1, human pancreatic cancer cells). As to the kind of experiment: MTT cancer cell growth inhibition. The format is cell-based. The note with it: MTT, 72 hours incubation, read-out: GI50 PAN.
Excerpt: as §1, §2, §3, §4, §5, §6, §7

For assay [8], the system named is Bel-7402 (human hepatoma cells). Briefly: MTT cancer cell growth inhibition. It counts as cell-based. The note with it: MTT, 72 hours incubation, Bel-7402 cells, read-out: GI50 Bel-7402.
Excerpt: as §1, §2, §3, §4, §5, §6, §7

Assay [9] has as its system A549 (human lung cancer cells). Briefly: MTT cancer cell growth inhibition. Particulars: MTT, 72 hours incubation, read-out: GI50 A54. The format is cell-based.
Excerpt: as §1, §2, §3, §4, §5, §6, §7

Assay [10] deals with KBM-5 (human chronic myelogenous leukemia). As to the kind of experiment: MTT cancer cell growth inhibition. The format is cell-based. Particulars: MTT, 72 hours incubation, KBM-5 cells, read-out: GI50 KBM-5.
Excerpt: as §1, §2, §3, §4, §5, §6, §7

Assay [11] has as its system HT1080 (human fibrosarcoma cells). Briefly: MTT cancer cell growth inhibition. It counts as cell-based. The note with it: MTT, 72 hours incubation, read-out: GI50 HT1.
Excerpt: as §1, §2, §3, §4, §5, §6, §7

Assay [12] has as its system SGC-7901 (human gastric cancer cells). As to the kind of experiment: MTT cancer cell growth inhibition. The format is cell-based. Particulars: MTT, 72 hours incubation, SGC-7901 cells, read-out: GI50 SGC-7901.
Excerpt: as §1, §2, §3, §4, §5, §6, §7

For assay [13], the system named is MDA-MB-231 (breast cancer cells). Briefly: MTT cancer cell growth inhibition. The format is cell-based.
Excerpt: as §1, §2, §3, §4, §5, §6, §7

In assay [14] the test system is MCF-7 (human breast cancer cells). Briefly: MTT cancer cell growth inhibition. It counts as cell-based. Particulars: 72 hours incubation, read-out: GI50 MCF.
Excerpt: as §1, §2, §3, §4, §5, §6, §7

In assay [15] the test system is lncap (prostate cancer cells). Briefly: MTT cancer cell growth inhibition. The format is cell-based. Particulars: MTT, 72 hours incubation, read-out: GI50 lnca.
Excerpt: as §1, §2, §3, §4, §5, §6, §7

Assay [16] concerns DU145 (human prostate cancer cells). As to the kind of experiment: MTT cancer cell growth inhibition. Particulars: MTT, 72 hours incubation, read-out: GI50 Du1. The format is cell-based.
Excerpt: as §1, §2, §3, §4, §5, §6, §7

Assay [17] relates to Huh-7 (human hepatoma cells). Briefly: MTT cancer cell growth inhibition. The format is cell-based. The note with it: MTT, 72 hours incubation, Huh-7 cells, read-out: GI50 Huh-7.
Excerpt: as §1, §2, §3, §4, §5, §6, §7

Assay [18] has as its system HCC827 (human non-small cell lung cancer cells). As to the kind of experiment: MTT cancer cell growth inhibition. The note with it: MTT, 72 hours incubation, HCC827 cells, read-out: GI50 HCC827. The format is cell-based.
Excerpt: as §1, §2, §3, §4, §5, §6, §7

Assay [19] relates to MOLT-4 (human acute lymphoblastic leukemia cells). Briefly: MTT cancer cell growth inhibition. It counts as cell-based. The note with it: MTT, 72 hours incubation, read-out: GI50 Mol.
Excerpt: as §1, §2, §3, §4, §5, §6, §7

For assay [20], the system named is U937 (human leukemia cells). Briefly: MTT cancer cell growth inhibition. It counts as cell-based. Particulars: MTT, 72 hours incubation, read-out: GI50 U93.
Excerpt: as §1, §2, §3, §4, §5, §6, §7

Setting [21] is: Homo sapiens, MDA-MB-231, 72 h, read-out: GI50 MDA-MB-231, MTT, 72 hours incubation, MDA-MB-231 cells.

`C/C=C1\NC(=O)c2ccc(SC)c(n2)CNC(=O)C[C@@H](/C=C/CCSC(C)=O)OC(=O)[C@H](C(C)C)NC1=O` [Compound 209]: the “IC50 HDAC7” value against HDAC7 was “no activity”. Besides, the GI50 in assay [1] stood at 0.031 µM; in assay [2] it was 0.051 µM; in assay [3] (Hela cells) it was 0.09 µM; in assay [4] (BGC-823 cells), 0.04 µM; in [5] it was 0.039 µM; in assay [6] it was 0.017 µM. Moreover, the GI50 worked out at 0.02 µM in assay [7] (PANC-1 cells); 0.013 µM in assay [8]; 0.02 µM in [9] (A549 cells); 0.046 µM in [10]; 0.03 µM in [11] (HT1080 cells); 0.041 µM in assay [12]. Moreover, the GI50 is 0.035 µM in [13] (read-out: GI50 MDA-MB-231, MTT, 72 hours incubation, MDA-MB-231 cells); 0.02 µM in assay [14] (MCF-7 cells); 0.02 µM in assay [15] (lncap cells); 0.07 µM in assay [16] (DU145 cells); 0.023 µM in assay [17]; 0.085 µM in [18]. The results for the GI50 in assay [19] (MOLT-4 cells) and in assay [20] (U937 cells) were 0.07 µM and 0.03 µM, respectively.
With `C/C=C1\NC(=O)c2cc(F)cc(n2)CNC(=O)C[C@@H](/C=C/CCS)OC(=O)[C@H](CCCCN)NC1=O` [Compound 117], on HDAC7, the “IC50 HDAC7” value was “no activity”. The GI50 in [1] (Homo sapiens, 72 h) came to 0.059 µM; in assay [2] (Homo sapiens, 72 h) it was 0.016 µM; in assay [3] (Homo sapiens, HeLa, 72 h), 0.08 µM; in assay [4] (Homo sapiens, BGC-823, 72 h) it was 0.07 µM; in [5] (Homo sapiens, K562, 72 h) it was 0.035 µM; in [6] (Homo sapiens, NCI-H1975, 72 h), 0.072 µM. Moreover, the GI50 in [7] (Homo sapiens, PANC-1, 72 h) was 0.06 µM; in [8] (Homo sapiens, Bel-7402, 72 h) it was 0.034 µM; in assay [9] (Homo sapiens, A549, 72 h), 0.06 µM; in assay [10] (Homo sapiens, KBM5, 72 h), 0.022 µM; in [11] (Homo sapiens, HT-1080, 72 h), 0.04 µM; in [12] (Homo sapiens, SGC-7901, 72 h), 0.033 µM. Also, the GI50 is 0.058 µM in assay [13] (setting [21]); 0.02 µM in [14] (Homo sapiens, MCF7, 72 h); 0.02 µM in [15] (Homo sapiens, LNCaP, 72 h); 0.01 µM in [16] (Homo sapiens, DU-145, 72 h); 0.066 µM in assay [17] (Homo sapiens, Huh-7, 72 h); 0.086 µM in assay [18] (Homo sapiens, HCC827, 72 h). Also, the GI50 is 0.02 µM in [19] (Homo sapiens, MOLT-4, 72 h) and 0.03 µM in assay [20] (Homo sapiens, U-937, 72 h).
In the case of `C/C=C1\NC(=O)c2nc(ccc2SC)CNC(=O)C[C@@H](/C=C/CCSC(=O)CCC)OC(=O)[C@H](C(C)C)NC1=O` [Compound 159], at HDAC7, the “IC50 HDAC7” value is listed as “no activity”. The GI50 in [1] (Homo sapiens, 72 h) worked out at 0.053 µM; in assay [2] (Homo sapiens, 72 h) it was 0.063 µM; in [3] (Homo sapiens, HeLa, 72 h, Hela cells), 0.07 µM; in assay [4] (Homo sapiens, BGC-823, 72 h, BGC-823 cells), 0.08 µM; in assay [5] (Homo sapiens, K562, 72 h), 0.062 µM; in [6] (Homo sapiens, NCI-H1975, 72 h), 0.024 µM. The GI50 in assay [7] (Homo sapiens, PANC-1, 72 h, PANC-1 cells) was 0.05 µM; in assay [8] (Homo sapiens, Bel-7402, 72 h), 0.023 µM; in [9] (Homo sapiens, A549, 72 h, A549 cells), 0.03 µM; in assay [10] (Homo sapiens, KBM5, 72 h), 0.035 µM; in [11] (Homo sapiens, HT-1080, 72 h, HT1080 cells) it was 0.05 µM; in [12] (Homo sapiens, SGC-7901, 72 h) it was 0.075 µM. Moreover, the GI50 in assay [13] (setting [21]) was 0.036 µM; in assay [14] (Homo sapiens, MCF7, 72 h, MCF-7 cells), 0.05 µM; in assay [15] (Homo sapiens, LNCaP, 72 h, lncap cells), 0.06 µM; in [16] (Homo sapiens, DU-145, 72 h, DU145 cells) it was 0.04 µM; in [17] (Homo sapiens, Huh-7, 72 h), 0.058 µM; in assay [18] (Homo sapiens, HCC827, 72 h) it was 0.035 µM. In addition, the GI50 in assay [19] (Homo sapiens, MOLT-4, 72 h, MOLT-4 cells) was determined as 0.05 µM; in [20] (Homo sapiens, U-937, 72 h, U937 cells), 0.06 µM.
